The data set has as its target CYP3A4 (Homo sapiens, UniProt P08684). Description: Effect of voxelotor on PK of CYP3A4 probe substrate midazolam in healthy subjects. The conditions noted are these: healthy subjects. As to the method: During Period 1, subjects received a single dose of caffeine 100 mg, warfarin sodium 10 mg+vitamin K 10 mg, omeprazole 20 mg, and midazolam hydrochloride 2 mg on Day 1. During Period 2, subjects received voxelotor 900 mg QD on Days 1 and 2 followed by 600 mg QD on Day 3, a single dose of caffeine 100 mg, warfarin sodium 10 mg+vitamin K 10 mg, omeprazole 20 mg, and midazolam hydrochloride 2 mg on Day 4, and voxelotor 600 mg QD on Days 4 through 7.
Whole blood and plasma concentrations of voxelotor and plasma concentrations of caffeine, paraxanthine, S-warfarin, omeprazole, 5-hydroxyomeprazole, midazolam, and 1-hydroxymidazolam were determined using validated assays.

CYP3A4, sequence (P08684 whole entry): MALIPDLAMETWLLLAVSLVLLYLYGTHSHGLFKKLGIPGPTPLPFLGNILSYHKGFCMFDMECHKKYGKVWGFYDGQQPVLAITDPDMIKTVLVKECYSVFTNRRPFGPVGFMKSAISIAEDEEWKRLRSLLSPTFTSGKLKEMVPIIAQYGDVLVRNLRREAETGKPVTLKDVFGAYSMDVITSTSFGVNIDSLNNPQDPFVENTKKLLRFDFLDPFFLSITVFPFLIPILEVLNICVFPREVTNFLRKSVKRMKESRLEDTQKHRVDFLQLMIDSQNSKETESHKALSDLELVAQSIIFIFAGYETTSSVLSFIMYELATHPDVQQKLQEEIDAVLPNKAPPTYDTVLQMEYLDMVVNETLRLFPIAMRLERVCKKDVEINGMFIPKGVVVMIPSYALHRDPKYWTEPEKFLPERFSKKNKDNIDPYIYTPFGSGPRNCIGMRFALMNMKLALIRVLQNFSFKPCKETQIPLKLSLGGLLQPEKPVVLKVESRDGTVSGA

As to `OCc1ncc2n1-c1ccc(Cl)cc1C(c1ccccc1F)=NC2` [1′-hydroxy-midazolam], for the setting “midazolam metabolite, voxelotor 900/600 mg QD”, the “increase of overall exposure of metabolite in the presence of voxelotor” value is reported as 75%.
Turning to `Cc1ncc2n1-c1ccc(Cl)cc1C(c1ccccc1F)=NC2` [midazolam], the “observed exposure increase with voxelotor” value (CYP3A4 substrate midazolam) came out at 1.6 fold. Also, the “increase of overall exposure in the presence of voxelotor” value (midazolam hydrochloride 2 mg single dose, voxelotor 900/600 mg QD) was 63%.

These data come from patent US20230015823A1, “METHODS OF ADMINISTERING VOXELOTOR” (Global Blood Therapeutics, Inc., priority 2019, published 2023).
